Results on 74 compounds are retold here after PubChem BioAssay AID179 (DTP/NCI, 2004).

The structures appear in SMILES notation. The source made the active and inactive calls.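 The calls were made as follows: active = compounds giving half or more protection of infected cells from virus-caused growth loss, again on retest; inactive = the rest.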

The test system of the experiment is CEM cells HIV-1 protection, formazan growth assay. The experiment can be described thus: NCI AIDS Antiviral Assay. To be noted: for IC50: measured here: growth of uninfected CEM cells. A digest of the protocol:
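Five concentrations of each compound were applied to infected and uninfected human CEM cells. Protection from HIV-1 was judged from growth measured with a soluble formazan assay.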

In the case of `COc1ccccc1/C=C/C(=O)/C=C/c1ccccc1O`, the EC50 was over 79.4 µM and the IC50 was found to be 1.15 µM.

Turning to `CC(C)=CCC1(O)C(=O)c2ccccc2C1(O)C(=O)O` (stereo not given), the EC50 was over 200 µM and the IC50 was over 200 µM. As for `NC(=S)Nc1[nH]c(=S)nc2c1SC1=N/C(=C\c3ccco3)C(=O)N12`, the EC50 is over 200 µM and the IC50 was determined as 81.3 µM. On to `O=[N+]([O-])c1ccc(Cl)cc1-n1nc(-c2ccccc2)cc1-c1ccccc1`, for which the EC50 is over 200 µM and the IC50 is over 200 µM. Regarding `NC1=NN(c2ccccc2)C(=O)C1/C(=N\NC(=O)c1cc2ccccc2cc1O)C(=O)Nc1nc([N+](=O)[O-])cs1` (stereo not given), the EC50 is over 12.9 µM and the IC50 is over 12.9 µM. Take `CC1C(c2ccccc2)OC(N2CCOCC2)C(C)(C)CN1C` (stereo not given): the EC50 is over 200 µM and the IC50 was over 200 µM. With `Oc1cc(O)cc(-c2c(O)cc(O)cc2O)c1`, the EC50 is over 200 µM and the IC50 was determined as 145 µM. In the case of `COc1ccc2c(C)cc(N/N=C(\C)C=O)nc2c1`, the EC50 was over 200 µM and the IC50 was 4.07 µM. For `CN(C)C1C(=O)C(C(=O)NCNC(CCS(C)=O)C(=O)O)=C(O)C2(O)C(=O)C3=C(O)c4c(O)cccc4C(C)(O)C3CC12` (stereo not given) the same measures were over 204 µM and over 100 µM. Take `COc1cc(C2c3cc4c(cc3OC(O)C2C)OCO4)cc(OC)c1O` (stereo not given): the EC50 is over 200 µM and the IC50 turned out to be 1.05 µM. Taken in the same sequence, the figures for `N#CC1C(=O)NC(=O)C1=O` (stereo not given) were over 1820 µM and over 1820 µM. For `CC(=O)Nc1c(C#N)c2n(c1C(=O)Nc1ccc(C)cc1)CCC2` the same measures were over 100 µM and over 100 µM. For `COc1ccc(/C=C2\CN(C)C/C(=C\c3ccc(OC)c(OC)c3OC)C2=O)c(OC)c1OC`, the EC50 is over 2 µM and the IC50 was found to be 0.331 µM.

In the case of `C#C[C@]1(O)CCCC2=CC(=O)CC[C@@]21C`, the outcome was inactive. Turning to `COC(=O)c1c(-c2ccccc2)cc2c3cc(-c4ccccc4)c(C(=O)OC)n3c3ccccc3n12`, the EC50 was over 28.8 µM and the IC50 is over 28.8 µM. Take `O=C(Nc1cc(C(F)(F)F)ccc1Cl)C(=O)C(C(=O)c1ccc2ccccc2c1)C1OC(=O)c2ccccc21` (stereo not given): the EC50 was over 33.9 µM and the IC50 came to 18.6 µM. Consider `Cc1ccncc1.Cc1ccncc1.O=[N+]([O-])[O-].O=[N+]([O-])[O-].[Pt+2]`, for which the EC50 was over 148 µM and the IC50 worked out at 69.2 µM. Taken in the same sequence, the figures for `O=NN1CCCS1(=O)=O` were over 200 µM and over 200 µM. Taken in the same sequence, the figures for `CSC12c3cc(C)n(-c4ccc(I)cc4)c3CC(C)(C)CN1C(=O)C2Oc1ccccc1` (stereo not given) were over 200 µM and 75.9 µM.

For the compound `c1ccc(C2=C(c3ccccc3)P(c3ccccc3)C2)cc1` (stereo not given), the result was inactive. On to `Cc1cc[n+]2c(c1)-c1cc(C)cc[n+]1CC2`, for which the EC50 is over 200 µM and the IC50 was 162 µM. For `CC1=C(c2ccccc2)NC(=S)C(C)C(c2ccccc2)=N1` (stereo not given) the same measures were over 200 µM and 28.2 µM.

As to `CC(C)(C)N=c1n(C(C)(C)C)oc(=O)n1-c1ccccc1`, the EC50 is over 50.1 µM and the IC50 was over 50.1 µM. Consider `O=C1CC(CC(O)[C@@H]2CCCC[C@@H]2O)CC(=O)N1c1ccccc1` (stereo not given in full), for which the EC50 is over 200 µM and the IC50 was over 200 µM. For the compound `O=C(O)CCCCCCCCCCCO`, the EC50 is over 200 µM and the IC50 was over 200 µM. With `O=C(CC(=O)Nc1ccccc1)NNC(c1cc(N=Nc2ccc(Br)cc2)ccc1O)P(O)O` (stereo not given), the EC50 is over 100 µM and the IC50 worked out at 3.98 µM. In the case of `CC(=O)OCCOCn1c2ccccc2c2c3c(c4c5ccccc5n(COCCO)c4c21)C(=O)N(Cc1ccccc1)C3=O`, the result was inactive. On to `Cc1cn(C(C)OCCO[Si](C)(C)C(C)(C)C)c(=O)[nH]c1=O` (stereo not given), for which the EC50 is over 200 µM and the IC50 is 112 µM.

As to `C[C@H](N)C(=O)N[C@@H]1[C@H]2C(=C(O)C[C@@H](O)[C@@H]2O)C(=O)O[C@@H]1C`, the result was inactive. With `CS/C(c1ccccc1)=[N+](/C)[O-]`, the EC50 was over 813 µM and the IC50 stood at 589 µM. For `CCOCCN(CCOCC)C(=O)c1ccc2c(c1)no[n+]2[O-]` the same measures were over 200 µM and 135 µM. For `O=[N+]([O-])c1ccc(-n2nnc(C3=NCCCN3)c2-c2ccc(Cl)cc2)cc1`, the EC50 was 1.38 µM and the IC50 stood at 148 µM.

`CCc1c(Cc2cc(C)cc(C)c2)n(COCCSc2ccccc2)c(=O)[nH]c1=O`: the EC50 was 0.49 µM and the IC50 was determined as 15.5 µM. Taken in the same sequence, the figures for `COc1cc(/C=C2/SC(c3ccccc3)N(c3ccccc3Cl)C2=O)cc(OC)c1OC` (stereo not given) were over 200 µM and 43.7 µM.

With `CCOC(=O)/C(C#N)=C/c1c[nH]c2ccccc12`, the EC50 was over 200 µM and the IC50 came out at 158 µM. With `CC(=O)CC(=O)Nc1ccccc1[N+](=O)[O-]`, the result was inactive.

On to `CCCC(=O)n1[nH]c(=O)n(C(C)(C)C)c1=O`, for which the EC50 is over 200 µM and the IC50 was over 200 µM. As for `CN=C1Nc2ccccc2C(=O)N2CSCC12` (stereo not given), the EC50 was over 200 µM and the IC50 is over 200 µM. `O=C1C[C@H]2[C@H](c3ccc(Br)cc3)[C@H]3C(=O)c4ccccc4NC(=O)[C@@H]3[C@@]2(O)c2ccccc2N1`: the EC50 is over 200 µM and the IC50 worked out at 77.6 µM. In the case of `Cc1ccc2ccc(-c3cc4ccccc4s3)nc2c1`, the result was inactive.

On to `O=C1NC(c2ccccc2)C1N(Cc1ccccc1)Cc1ccccc1` (stereo not given), for which the EC50 was over 200 µM and the IC50 is over 200 µM.

Take `CC(C)OP(=O)(OC(C)C)C(=NCCN=C(NNc1ccc([N+](=O)[O-])cc1)P(=O)(OC(C)C)OC(C)C)NNc1ccc([N+](=O)[O-])cc1`: the EC50 is over 7.24 µM and the IC50 is over 7.24 µM. For the compound `Cc1cc(Cl)cc2c1NC(=O)C2(O)C(C)C(=O)c1ccc(Cl)cc1` (stereo not given), the EC50 was over 186 µM and the IC50 worked out at 123 µM. `O=c1[nH]c(=O)n(C2CC(O)C(CO)O2)cc1/C=C/Br` (stereo not given): the EC50 was over 759 µM and the IC50 came to 741 µM. Turning to `CN1CC(C(=O)C2C(=O)c3ccccc3C2=O)C(=O)C(=O)C(C(=O)C2C(=O)c3ccccc3C2=O)C1` (stereo not given), the outcome was inactive.

On to `Cc1nnc(N)nc1/C=C\c1ccc(Cl)cc1Cl`, for which the EC50 is over 200 µM and the IC50 was 50.1 µM.

`CC1(C)C2CC(=O)C1(C)C(OCc1ccccc1)C2` (stereo not given): the outcome was inactive. Still for that read-out and setting: next, `CC1(C)OC2OC(CO)C(N)C2O1` (stereo not given): “inactive”. In the case of `CC(C)CCC[C@@H](C)C1CCC2[C@@H]3CCC4CC(=C(c5cc(Cl)c(O)c(C(=O)O)c5)c5cc(Cl)c(O)c(C(=O)O)c5)CC[C@]4(C)C3CC[C@@]21C` (stereo not given in full), the EC50 was 47.9 µM and the IC50 was determined as 148 µM.

Consider `CN1c2ccccc2Oc2ccc3ccccc3c21`, for which the EC50 was over 200 µM and the IC50 was 135 µM. For `Cc1nnnn1C12CC3CC(CC(C3)C1)C2`, the result was inactive. In the case of `C(#CCN1CCCCCC1)CN1CCCCCC1`, the EC50 is 182 µM and the IC50 was over 200 µM.

As to `Cn1c(=O)oc2cc(C(=O)CN3CCN(Cc4ccc5c(c4)OCO5)CC3)c(Cl)cc21`, the EC50 is over 200 µM and the 50% inhibitory concentration (IC50) is 178 µM. For `CCOC(=O)c1ccc(CSc2ccccc2C(=O)O)cc1` the same measures were over 16.6 µM and over 16.6 µM.

Consider `COc1ccc(/C=C2\NC(=S)N(/C=C3\C(=O)Oc4ccccc4C3=O)C2=O)cc1OC`, for which the EC50 was over 200 µM and the half-maximal inhibitory concentration (IC50) was over 200 µM. Turning to `O=S(=O)(O)c1ccc(OCCCCCCCCCCOc2ccc(S(=O)(=O)O)cc2)cc1`, the EC50 was over 25.7 µM and the IC50 is over 25.7 µM.

Take `Cc1ccc(S(=O)(=O)SSSSS(=O)(=O)c2ccc(C)cc2)cc1`: the EC50 was over 30.9 µM and the IC50 is over 30.9 µM. With `O=C1c2ccccc2C(=O)C1(O)c1c[nH]c2ccccc12`, the EC50 was over 912 µM and the IC50 was 64.6 µM.

As for `Cc1cc(=O)oc2c(CNC(C)C(=O)O)c(O)ccc12` (stereo not given), the EC50 is over 200 µM and the 50% inhibitory concentration (IC50) is 186 µM. For `Clc1cc(OC23CC4CC(CC(C4)C2)C3)nc(Cl)n1` the same measures were over 100 µM and 45.7 µM. As for `CNC(=O)CCNC(=O)CCC(=O)OC`, the EC50 was over 200 µM and the IC50 is over 200 µM.

Regarding `CN1c2ccccc2NC(CC(=O)O)C2CC=CN21` (stereo not given), the EC50 was over 955 µM and the 50% inhibitory concentration (IC50) is 631 µM. As for `O=C(CCC(=O)Nc1ccc(Cl)c(Cl)c1)CC(=O)c1ccc2ccccc2c1`, the outcome was inactive. Turning to `CC1(C)C2CCC1C(SC(=N)N)C2` (stereo not given), the EC50 is over 200 µM and the IC50 was determined as 43.7 µM. For the compound `O=c1c2cc(Br)ccc2[nH]c(=S)n1-c1ccc(Br)cc1`, the EC50 is over 45.7 µM and the IC50 was over 45.7 µM. In turn, `COC(=O)c1cc(=O)n2c(c1C(C)=O)N(C)CC2` displayed an EC50 of over 427 µM and an IC50 of over 427 µM. For `CC(NC(=O)N(C)C)NC(=O)N(C)C`, the outcome was inactive.

Regarding `CC1(C(N)=O)OC12CCCCC2` (stereo not given), the EC50 was over 200 µM and the IC50 was over 200 µM.

With `CCCCc1c2c(nc3c1CCc1cc4cc5c(nc4nc1-3)-c1nc3c(c(CCCC)c1CC5)CCCC3=O)C(=O)CCC2`, the EC50 was over 100 µM and the IC50 stood at 0.457 µM. Taken in the same sequence, the figures for `Oc1ccc2ccccc2c1NCn1nc(CCCCCCCCc2nn(CNc3c(O)ccc4ccccc34)c(=S)o2)oc1=S` were over 200 µM and 37.2 µM. On to `O=C(O)CC1NC(/C(=C/c2ccccc2O)NC(=O)c2ccccc2)OC1=O` (stereo not given), for which the outcome was inactive.

Take `N#C/C(=C\c1ccc(-c2ccccc2)cc1)c1ccc(Cl)cc1`: the EC50 was over 100 µM and the IC50 is over 100 µM. Take `CCCCCCCCCCCCC(=O)NCC(=O)NC(Cc1ccccc1)C(=O)Oc1ccc([N+](=O)[O-])cc1` (stereo not given): the EC50 was over 200 µM and the IC50 is 5.25 µM. For `CC(C)=NNC=N/C(C#N)=C(\N)C#N` the same measures were over 200 µM and over 200 µM.
